Results on 2 compounds are retold here after patent EP0844879B1, “PHARMACEUTICAL CO[…] D[…] IN […] IMMUNE RESPONSE” (LA[…] SPINDLER, priority 1995, dated 1996).

Structures are written as SMILES. Entries after “also recorded” stand apart in the source; their conditions may differ.

The test system of the assay is vaccin monovalent de la grippe (vaccin NIB16, souche A) (HA). Briefly: Immunisation of mice with monovalent influenza vaccine, steroid as adjuvant; total anti-HA IgG in serum by enzyme immunoassay. Type of assay: in vivo, souris BALB/C. As to conditions: aged mice compared with young mice; steroid given with HA. Here is the method:
Un protocole d'immunisation contre le vaccin monovalent de la grippe (vaccin NIB16, souche A) (HA), est utilisé pour tester l'effet adjuvant du dérivé 3β-palmitoyl de la 7αOH-DHEA mis en solution à 10 mg/ml dans le DMSO.
Trois lots de 5 souris BALB/C âgées de 6 semaines (jeunes) et trois lots de 5 souris BALB/C âgées de 90 semaines (âgées) subissent le premier jour une injection sous-cutanée de 0,5 ml de sérum physiologique contenant : • soit 8 µg de HA + 1,8 µmole (0,78 mg/kg) de 3β-palmitoyl-7αOH-DHEA (lot 1) • soit 8 µg de HA + 1,8 µmole (0,56 mg/kg) de 7αOH-DHEA (lot 2) • soit 8 µg de HA (lot 3) Après 28 jours, chaque souris de chaque lot subit un rappel, les injections décrites étant répétées pour chaque lot. Après 38 jours, chaque souris de chaque lot est sacrifiée et le sang prélevé. Les IgG totales anti-HA sont mesurées dans chaque sérum par une méthode immunoenzymatique. […] Tableau 1

On to `CCCCCCCCCCCCCCCC(=O)O[C@H]1CC[C@@]2(C)C(=C[C@@H](O)[C@@H]3[C@@H]2CC[C@]2(C)C(=O)CC[C@@H]32)C1` [3β-palmitoyl-7αOH-DHEA], for which the “réponse immunitaire des souris âgées (result in words)” value is reported as “rétablit la réponse immunitaire des souris âgées à un niveau proche de celui des souris jeunes; also recorded: a un effet sur la réponse immunitaire des souris âgées comparable à celui obtenu chez les souris jeunes”. The same measure for `C[C@]12CC[C@H](O)CC1=C[C@@H](O)[C@@H]1[C@@H]2CC[C@]2(C)C(=O)CC[C@@H]12` [7αOH-DHEA, reference compound]: “cette réponse n'est pas obtenue”.
